Source: US20150166505A1, “PYRIDINYL-SUBSTITUTED PYRAZOLYL CARBOXAMIDES” (GRÜNENTHAL GMBH, priority 2013, published 2015)
Values after ≈ are worked out from the molar mass of the structure shown. Read-outs that look alike come from different tables or passages of the source.

How the values were obtained:
[1] = biological target: T1, CRAC channel (endogenous SOC in HEK293 cells) (Homo sapiens, UniProt Q96D31); assay: HEK Calcium Influx Assay (FLIPR); type: cell-based
T1 construct: endogenous in cells; host or cells: HEK293 (ECACC)
In short: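 Endogenous SOC in HEK293 cells, Calcium-4 dye-loaded; stores depleted with 2 μM thapsigargin in Ca2+-free HBS (100 μM EGTA, pH 7.4) 10 min, then 3 mM CaCl2 added. Compound given after 15 min; signal averaged 9.5–10 min post-addition versus DMSO and non-TG controls. IC50 from 8-point 1:3.16 series starting 10 μM.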

[2] = Nephelometric Solubility Measurement; type: physicochemical; details: aqueous buffer, kinetic from dmso stock; phosphate buffered saline pH 7.4, 37° C., incubation 2 minutes
Description: Nephelometric Solubility Measurement
BMG Labtech Nephelostar (S/N 504-0167), 37° C.; Gain: 100; Laser Beam Focus 1.5 mm; Laser intensity 80%; measurement time/well 0.1 s; positioning delay 0.1 s; data analysis: BMG Labtech MARS software
Measurements with BMG Labtech Nephelostar performed though addition of DMSO stock solutions of compound (2, 5, 10, 20, 30, 40, 50, 60, 80, 100 [μg/mL]) into phosphate buffered saline (pH 7.4, purchased from Invitrogen, catalogue number 10010-056); incubation time: 2 minutes [blank measurement contains DMSO (2.5 μL) and buffered saline (47.5 μL)]; Detection of insoluble particles in liquid samples was performed by measuring forward scattered light.

[3] = tested on: Interleukin-2 (IL-2) production/release in Jurkat T cell line; assay: Jurkat IL-2 Production Assay; type: cell-based; details: Homo sapiens; Jurkat T cells, PHA stimulation 22 hours
In short: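 Jurkat E6-1 cells (5*10^5/well) preincubated 30 min with compound, then stimulated with 15 μg/ml PHA for 22 h at 37 °C. IC50 from 8-point 1:3.16 dilutions starting at 10 μM.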

[4] = thapsigargin store depletion, read-out: % inhib. [@ 10 μM] FLIPR

T1 sequence (Q96D31 whole entry): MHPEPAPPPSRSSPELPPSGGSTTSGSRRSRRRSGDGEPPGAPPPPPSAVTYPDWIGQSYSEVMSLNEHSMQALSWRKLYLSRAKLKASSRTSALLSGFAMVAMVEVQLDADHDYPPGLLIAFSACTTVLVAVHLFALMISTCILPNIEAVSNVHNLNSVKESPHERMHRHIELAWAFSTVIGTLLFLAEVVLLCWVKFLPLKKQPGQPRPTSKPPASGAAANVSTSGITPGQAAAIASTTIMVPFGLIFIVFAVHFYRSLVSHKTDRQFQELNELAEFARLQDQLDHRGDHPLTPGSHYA

CCOc1cc(C)c(-c2cc(C(=O)Nc3c(F)cccc3F)nn2C)cn1 [Example 3, N-(2,6-Difluoro-phenyl)-5-(6-ethoxy-4-methyl-pyridin-3-yl)-1-methyl-1H-pyrazole-3-carboxylic acid amide]
inhibition at 10 µM ([1]; numeric values of Table 2, read-out: inhib. [@ 10 μM] FLIPR): 75% | inhibition at 10 µM [1, 4]: > 70% | solubility at 2 min [2]: 149 µM (≈ 55.6 µg/mL) | IC50 [3]: < 0.5 µM

COc1cc(OC)c(-c2cc(C(=O)Nc3c(F)cccc3F)nn2C)cn1 [Example 38, N-(2,6-Difluoro-phenyl)-5-(4,6-dimethoxy-pyridin-3-yl)-1-methyl-1H-pyrazole-3-carboxylic acid amide]
inhibition at 10 µM [1, 4]: > 70% | solubility at 2 min [2]: > 267 µM | IC50 [3]: < 0.5 µM

COc1ncc(-c2nn(C)c(=O)o2)cc1-c1cc(C(=O)Nc2c(F)cccc2F)nn1C [Example 74, N-(2,6-Difluoro-phenyl)-5-[2-methoxy-5-(4-methyl-5-oxo-4H-[1,3,4]oxadiazol-2-yl)-pyridin-3-yl]-1-methyl-1H-pyrazole-3-carboxylic acid amide]
inhibition at 10 µM [1, 4]: < 50% | solubility at 2 min [2]: 131 µM (≈ 57.8 µg/mL) | IC50 [3]: 1 to 5 µM
